Assay results taken from patent US5464835A, “Use for bis-heterocyclic compounds and pharmaceutical compositions containing same” (Harbor Branch Oceanographic Institution, Inc., priority 1994, dated 1995).

Tests used:
[1] = target: bee venom phospholipase A2 (Apis mellifera, UniProt P00630); assay: biochemical; format: biochemical; conditions: for inhibition at 1.6 µM: final concentration 1.6 μM; for inhibition at 1.6 µM / inhibition at 1 µM: read-out: % Inactivation of bee venom phospholipase A2; for inhibition at 1 µM: final concentration 1 μM
[2] = tested on: PMA-induced mouse ear edema; assay: Mouse ear anti-inflammatory assay (topical inhibition of PMA-induced edema); conditions: for % Inhibition of edema / ED50, topical inhibition of PMA-induced mouse ear edema: topical; for % Inhibition of edema: Table 3; for inhibition of PMA-induced edema / anti-inflammatory activity (in words): result in words; for percent inhibition of edema (dose-response): FIG. 2; for ED50, topical inhibition of PMA-induced mouse ear edema: simultaneous with PMA, 3 h 20 min, Table 2; for percent inhibition of mouse ear edema (dose-response): FIG. 3
Protocol: A. Mouse ear anti-inflammatory assay. The test compound and a known inflammatory agent, phorbol myristate acetate (PMA), are topically applied simultaneously to the left ears of mice. Three hours and 20 minutes following application, the mice are sacrificed. Both left and right ears are removed and standard-sized bores taken. Edema (inflammation) is measured as the difference in weight between left and right ears (Van Arman, C. G. [1974] Clin. Pharmacol. Ther. 16:900-904).

Candida albicans = assay: Antifungal activity against Candida albicans (MIC, RPMI-1640 growth medium); format: cell-based

Chain of bee venom phospholipase A2 (P00630 34-167 limits assumed): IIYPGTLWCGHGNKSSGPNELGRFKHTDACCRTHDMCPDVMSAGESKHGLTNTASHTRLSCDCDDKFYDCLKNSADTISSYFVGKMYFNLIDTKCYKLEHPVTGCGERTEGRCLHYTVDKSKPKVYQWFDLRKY

O=C1NCC(c2c[nH]c3cc(Br)ccc23)N=C1c1c[nH]c2cc(Br)ccc12 (stereo not shown) [Hamacanthin B]
inhibition at 1.6 µM ([1]; 1 h): 32% | % Inhibition of edema ([2]; dose 50 μM (so in the source)): 34.0% | antifungal activity (in words) (Candida albicans): active components

Brc1ccc2c(-c3c[nH]c(-c4c[nH]c5ccccc45)n3)c[nH]c2c1 [Nortopsentin C, nortopsentin C]
inhibition at 1 µM ([1]; 1 h): 26% | % Inhibition of edema ([2]; dose 50 μg/ear): 70.1% | inhibition of PMA-induced edema / anti-inflammatory activity (in words) [2]: significant potency

O=C1NC(c2c[nH]c3cc(Br)ccc23)CN=C1c1c[nH]c2cc(Br)ccc12 (stereo not shown) [Hamacanthin A]
inhibition at 1.6 µM ([1]; 1 h): 37% | % Inhibition of edema ([2]; dose 50 μM (so in the source)): 50.0% | antifungal activity (in words) (Candida albicans): active components

O=C(c1nc(-c2c[nH]c3ccccc23)c[nH]1)c1c[nH]c2cc(O)ccc12 [Topsentin]
IC50 [1]: 0.5 µM | inactivation of bee venom phospholipase A2 (in words) [1]: capable of the inactivation of bee venom phospholipase A2 | inhibition at 2 µM ([1]; 1 h, read-out: percent inactivation of bee venom phospholipase A2 (dose-response)): ≤ 80% | inhibition at 1 µM ([1]; 1 h): 67% | percent inhibition of edema (dose-response) ([2]; 100 μg/ear): more than 90% | percent inhibition of edema (dose-response) ([2]; about 12 μg/ear): ~50% | % Inhibition of edema ([2]; dose 50 μg/ear): 70.6% | inhibition of PMA-induced edema / anti-inflammatory activity (in words) [2]: significant potency | inhibition of PMA-induced edema / anti-inflammatory activity (in words) ([2]; listed as topsentin): greater potency than to the known anti-inflammatories hydrocortisone, indomethacin, and manoalide | ED50, topical inhibition of PMA-induced mouse ear edema [2]: 15 μg/ear

O=C(c1nc(-c2c[nH]c3cc(Br)ccc23)c[nH]1)c1c[nH]c2cc(O)ccc12 [Bromotopsentin]
inhibition at 1 µM ([1]; 1 h): 33% | percent inhibition of mouse ear edema (dose-response) ([2]; 50 μg/ear): about 75% | percent inhibition of mouse ear edema (dose-response) ([2]; approximately 25 μg/ear): about 20% | % Inhibition of edema ([2]; dose 50 μg/ear): 75.4% | inhibition of PMA-induced edema / anti-inflammatory activity (in words) [2]: significant potency

CC1=C(CC/C(C)=C/CCC2=CC[C@H](C3=CC(=O)O[C@H]3O)O[C@H]2O)C(C)(C)CCC1 [Manoalide, reference compound]
IC50 [1]: 0.05 µM | ED50, topical inhibition of PMA-induced mouse ear edema [2]: 100 μg/ear

CC(=O)Oc1ccc2c(C(=O)c3ncc(-c4c[nH]c5ccccc45)[nH]3)c[nH]c2c1 [Topsentin monoacetate]
inhibition at 1 µM ([1]; 1 h): 42% | % Inhibition of edema ([2]; dose 50 μg/ear): 45.8% | inhibition of PMA-induced edema / anti-inflammatory activity (in words) [2]: moderate activity

CN1CC(c2c[nH]c3c(Br)c(Br)cc(O)c23)NCC1c1c[nH]c2cc(Br)ccc12 (stereo not shown) [Dragmacidin]
inhibition at 1 µM ([1]; 1 h): 27% | % Inhibition of edema ([2]; dose 50 μg/ear): 64.0% | inhibition of PMA-induced edema / anti-inflammatory activity (in words) [2]: significant potency

COc1ccc2c(c1)c(CC(=O)O)c(C)n2C(=O)c1ccc(Cl)cc1 [Indomethacin, reference compound]
IC50 [1]: > 1000 µM | inactivation of bee venom phospholipase A2 (in words) [1]: inactive | ED50, topical inhibition of PMA-induced mouse ear edema [2]: 250 μg/ear

CC(=O)Oc1ccc2c(C(=O)c3ncc(-c4c[nH]c5ccccc45)n3C(C)=O)c[nH]c2c1 [Topsentin diacetate, topsentin diacetate]
inhibition at 1 µM ([1]; 1 h): 32% | % Inhibition of edema ([2]; dose 50 μg/ear): 42.6% | inhibition of PMA-induced edema / anti-inflammatory activity (in words) [2]: moderate activity

Brc1ccc2c(-c3c[nH]c(-c4c[nH]c5cc(Br)ccc45)n3)c[nH]c2c1 [Nortopsentin A]
inhibition at 1 µM ([1]; 1 h): 30% | % Inhibition of edema ([2]; dose 50 μg/ear): 98.1% | inhibition of PMA-induced edema / anti-inflammatory activity (in words) [2]: significant potency

Brc1ccc2c(-c3nc(-c4c[nH]c5ccccc45)c[nH]3)c[nH]c2c1 [Nortopsentin B, nortopsentin B]
inhibition at 1 µM ([1]; 1 h): 27% | % Inhibition of edema ([2]; dose 50 μg/ear): 38.2%

C[C@]12CCC(=O)C=C1CC[C@@H]1[C@@H]2[C@@H](O)C[C@@]2(C)[C@H]1CC[C@]2(O)C(=O)CO [Hydrocortisone, reference compound]
IC50 [1]: > 1000 µM | inactivation of bee venom phospholipase A2 (in words) [1]: inactive | ED50, topical inhibition of PMA-induced mouse ear edema [2]: 20 μg/ear
